Laboratory results: patent US9981942B2, “Piperidine derivatives having multimodal activity against pain” (LABORATORIOS DEL DR. ESTEVE S.A., priority 2013, dated 2018)

The molecules below were run on σ1 receptor and the μ-opiod receptor (assay: μ and σ1 dual binding: combined class from the Ki of both radioligand assays). Conditions: combined class for Ki-μ and Ki-σ1; transfected HEK-293 membranes (σ1), transfected CHO-K1 cell membranes (μ).
Parameters: species or system human; key to μ and σ1 dual binding: +: Both Ki-μ and Ki-σ1>=500 nM; ++: One Ki<500 nM while the other Ki is >=500 nM; +++: Both Ki-μ and Ki-σ1<500 nM; ++++: Both Ki-μ and Ki-σ1<100 nM
Outline: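 Classes combine both Ki values, split at 500 nM and 100 nM. Human μ-opioid binding used 1 nM [3H]-DAMGO on CHO-K1 membranes (27 °C, 60 min, pH 7.4, naloxone 10 μM for NSB); human σ1 used 5 nM [3H](+)-pentazocine on HEK-293 membranes (37 °C, 120 min, pH 8, haloperidol 10 μM for NSB).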

Row | Structure (SMILES) | μ and σ1 dual binding
1 | Oc1ncccc1C1CCN(Cc2cn(-c3ccccc3)nn2)CC1 [Example 205, 3-(1-((1-phenyl-1H-1,2,3-triazol-4-yl)methyl)piperidin-4-yl)pyridin-2-ol] | ++
2 | CS(=O)(=O)Nc1ccc(C(F)(F)F)c(C2CCN(Cc3cn(-c4ccccc4)nn3)CC2)c1 [Example 20, N-(3-(1-((1-phenyl-1H-1,2,3-triazol-4-yl)methyl)piperidin-4-yl)-4-(trifluoromethyl)phenyl)methanesulfonamide] | ++
3 | CS(=O)(=O)Nc1cccc(C2CCN(Cc3nnn4c3-c3ccccc3C4)CC2)c1 [Example 119, N-(3-(1-((8H-[1,2,3]triazolo[5,1-a]isoindol-3-yl)methyl)piperidin-4-yl)phenyl)methanesulfonamide] | ++
4 | CC(C)S(=O)(=O)Nc1cccc(C2CCN(Cc3cn(Cc4ccc(F)cn4)nn3)CC2)n1 [Example 210, N-(6-(1-((1-((5-fluoropyridin-2-yl)methyl)-1H-1,2,3-triazol-4-yl)methyl)piperidin-4-yl)pyridin-2-yl)propane-2-sulfonamide] | ++
5 | CC(C)S(=O)(=O)Nc1cccc(C2CCN(Cc3cn(Cc4ccccn4)cn3)CC2)c1 [Example 186, N-(3-(1-((1-(pyridin-2-ylmethyl)-1H-imidazol-4-yl)methyl)piperidin-4-yl)phenyl)propane-2-sulfonamide] | ++
6 | Oc1cccc(C2CCN(Cc3nnn4c3-c3ccccc3C4)CC2)c1 [Example 120, 3-(1-((8H-[1,2,3]triazolo[5,1-a]isoindol-3-yl)methyl)piperidin-4-yl)phenol] | ++
7 | CS(=O)(=O)Nc1cccc(C2CCN(Cc3nnc(-c4ccccc4)o3)CC2)c1 [Example 175, N-(3-(1-((5-phenyl-1,3,4-oxadiazol-2-yl)methyl)piperidin-4-yl)phenyl)methanesulfonamide] | ++
8 | Cc1cccc(Cn2cc(CN3CCC(c4cccc(NS(=O)(=O)C(C)C)c4)CC3)nn2)n1 [Example 118, N-(3-(1-((1-((6-methylpyridin-2-yl)methyl)-1H-1,2,3-triazol-4-yl)methyl)piperidin-4-yl)phenyl)propane-2-sulfonamide] | ++
9 | CC(C)S(=O)(=O)Nc1cccc(C2CCN(Cc3cn(Cc4ccc(C(F)(F)F)cn4)nn3)CC2)c1 [Example 122, N-(3-(1-((1-((5-(trifluoromethyl)pyridin-2-yl)methyl)-1H-1,2,3-triazol-4-yl)methyl)piperidin-4-yl)phenyl)propane-2-sulfonamide] | ++
10 | CC(C)S(=O)(=O)Nc1cccc(C2CCN(Cc3cn(Cc4cccc(C(F)(F)F)n4)nn3)CC2)c1 [Example 117, N-(3-(1-((1-((6-(trifluoromethyl)pyridin-2-yl)methyl)-1H-1,2,3-triazol-4-yl)methyl)piperidin-4-yl)phenyl)propane-2-sulfonamide] | ++

Same assay, conditions: transfected HEK-293 membranes (σ1), transfected CHO-K1 cell membranes (μ)

Row | Structure (SMILES) | Ki range for both μ and σ1 (dual-binding class)
11 | Oc1cccc(C2CCN(Cc3cn([C@@H]4CCCC[C@H]4O)nn3)CC2)c1 [Example 66, 3-(1-((1-((1R,2R)-2-hydroxycyclohexyl)-1H-1,2,3-triazol-4-yl)methyl)piperidin-4-yl)phenol] | < 500 nM
12 | CC(C)n1cc(CN2CCC(c3cccc(O)c3)CC2)nn1 [Example 23, 3-(1-((1-isopropyl-1H-1,2,3-triazol-4-yl)methyl)piperidin-4-yl)phenol] | < 500 nM
13 | c1ccc(-n2cc(CN3CCC(c4cccc5[nH]ncc45)CC3)nn2)cc1 [Example 29, 4-(1-((1-phenyl-1H-1,2,3-triazol-4-yl)methyl)piperidin-4-yl)-1H-indazole] | < 500 nM
14 | Oc1cccc(C2CCN(Cc3cn(-c4ccccc4O)nn3)CC2)c1 [Example 58, 2-(4-((4-(3-hydroxyphenyl)piperidin-1-yl)methyl)-1H-1,2,3-triazol-1-yl)phenol] | < 500 nM
15 | Oc1cccc(C2CCN(Cc3cn(C4CCc5ccccc54)nn3)CC2)c1 (stereo not shown) [Example 46, 3-(1-((1-(2,3-dihydro-1H-inden-1-yl)-1H-1,2,3-triazol-4-yl)methyl)piperidin-4-yl)phenol] | < 100 nM
16 | CS(=O)(=O)Nc1ccc(F)c(C2CCN(Cc3cn(Cc4ccccc4)nn3)CC2)c1 [Example 87, N-(3-(1-((1-benzyl-1H-1,2,3-triazol-4-yl)methyl)piperidin-4-yl)-4-fluorophenyl)methanesulfonamide] | < 500 nM
17 | Oc1cccc(C2CCN(Cc3cn(-c4ccc(F)c(F)c4)nn3)CC2)c1 [Example 147, 3-(1-((1-(3,4-difluorophenyl)-1H-1,2,3-triazol-4-yl)methyl)piperidin-4-yl)phenol] | < 100 nM
18 | Oc1cccc(C2CCN(Cc3cn(-c4ccc(Cl)c(Cl)c4)nn3)CC2)c1 [Example 40, 3-(1-((1-(3,4-dichlorophenyl)-1H-1,2,3-triazol-4-yl)methyl)piperidin-4-yl)phenol] | < 100 nM
19 | CS(=O)(=O)Nc1cc(C2CCN(Cc3cn(-c4ccccc4)nn3)CC2)ccn1 [Example 197, N-(4-(1-((1-phenyl-1H-1,2,3-triazol-4-yl)methyl)piperidin-4-yl)pyridin-2-yl)methanesulfonamide] | ≥ 500 nM
20 | Oc1cccc(C2CCN(Cc3cn(-c4ccccc4)nn3)CC2)c1 [Example 2, 3-(1-((1-phenyl-1H-1,2,3-triazol-4-yl)methyl)piperidin-4-yl)phenol] | < 100 nM
21 | Oc1cccc(C2CCN(Cc3cnn(Cc4ccccn4)c3)CC2)c1 [Example 171, 3-(1-((1-(pyridin-2-ylmethyl)-1H-pyrazol-4-yl)methyl)piperidin-4-yl)phenol] | < 500 nM
22 | CC(C)S(=O)(=O)Nc1cccc(C2CCN(Cc3cnn(Cc4ccccn4)c3)CC2)c1 [Example 167, N-(3-(1-((1-(pyridin-2-ylmethyl)-1H-pyrazol-4-yl)methyl)piperidin-4-yl)phenyl)propane-2-sulfonamide] | < 500 nM
23 | Fc1ccc(Nc2cccc(C3CCN(Cc4cn(Cc5ccccn5)nn4)CC3)c2)nc1 [Example 232, 5-fluoro-N-(3-(1-((1-(pyridin-2-ylmethyl)-1H-1,2,3-triazol-4-yl)methyl)piperidin-4-yl)phenyl)pyridin-2-amine] | < 500 nM
24 | Oc1cccc(C2CCN(Cc3cnn(Cc4ccc(F)cn4)c3)CC2)c1 [Example 173, 3-(1-((1-((5-fluoropyridin-2-yl)methyl)-1H-pyrazol-4-yl)methyl)piperidin-4-yl)phenol] | < 500 nM
25 | CS(=O)(=O)Nc1ccc(F)c(C2CCN(Cc3cn(-c4ccccc4)nn3)CC2)c1 [Example 18, N-(4-fluoro-3-(1-((1-phenyl-1H-1,2,3-triazol-4-yl)methyl)piperidin-4-yl)phenyl)methanesulfonamide] | < 100 nM
26 | COc1cccc(-n2cc(CN3CCC(c4cccc(O)c4)CC3)nn2)c1 [Example 44, 3-(1-((1-(3-methoxyphenyl)-1H-1,2,3-triazol-4-yl)methyl)piperidin-4-yl)phenol] | < 100 nM
27 | CS(=O)(=O)Nc1cc(C2CCN(Cc3cc(-c4ccccc4)no3)CC2)ccc1F [Example 180, N-(2-fluoro-5-(1-((3-phenylisoxazol-5-yl)methyl)piperidin-4-yl)phenyl)methanesulfonamide] | < 500 nM
28 | CS(=O)(=O)Nc1cccc(C2CCN(Cc3cn(Cc4ccc(C(F)(F)F)cc4)nn3)CC2)c1 [Example 57, N-(3-(1-((1-(4-(trifluoromethyl)benzyl)-1H-1,2,3-triazol-4-yl)methyl)piperidin-4-yl)phenyl)methanesulfonamide] | < 500 nM
29 | OC[C@@H](c1ccccc1)n1cc(CN2CCC(c3cccc(O)c3)CC2)nn1 (stereo in doubt) [Example 149, (R)-3-(1-((1-(2-hydroxy-1-phenylethyl)-1H-1,2,3-triazol-4-yl)methyl)piperidin-4-yl)phenol] | < 500 nM
30 | CS(=O)(=O)Nc1cccc(C2CCN(Cc3cn(-c4ccc(F)cc4)nn3)CC2)c1 [Example 16, N-(3-(1-((1-(4-fluorophenyl)-1H-1,2,3-triazol-4-yl)methyl)piperidin-4-yl)phenyl)methanesulfonamide] | < 500 nM
31 | CC(C)S(=O)(=O)Nc1cccc(C2CCN(Cc3cn(-c4ccccc4)nn3)CC2)c1 [Example 1, N-(3-(1-((1-phenyl-1H-1,2,3-triazol-4-yl)methyl)piperidin-4-yl)phenyl)propane-2-sulfonamide] | < 100 nM
32 | Oc1cccc(C2CCN(Cc3cn([C@@H]4c5ccccc5C[C@H]4O)nn3)CC2)c1 [Example 15, (1R,2R)-1-(4-((4-(3-hydroxyphenyl)piperidin-1-yl)methyl)-1H-1,2,3-triazol-1-yl)-2,3-dihydro-1H-inden-2-ol] | < 500 nM
33 | CC(=O)Nc1nc2c(C3CCN(Cc4cn(-c5ccccc5)nn4)CC3)cccc2s1 [Example 49, N-(4-(1-((1-Phenyl-1H-1,2,3-triazol-4-yl)methyl)piperidin-4-yl)benzo[d]thiazol-2-yl)acetamide] | < 100 nM
34 | Cc1ccc2cc(-n3cc(CN4CCC(c5cccc(O)c5)CC4)nn3)ccc2n1 [Example 233, 3-(1-((1-(2-methylquinolin-6-yl)-1H-1,2,3-triazol-4-yl)methyl)piperidin-4-yl)phenol] | < 500 nM
